Legend:
[1] = tested on: Pyrenophora tritici-repentis (PYRNTR); assay: Pyrenophora tritici-repentis test (wheat), field trial DEU-NWU3; type: in vivo; conditions: sprayed twice, 43 DAB, BBCH 83, 75 g/ha (I), 75 g/ha (II), 150 g/ha (III), 75 + 75 + 150 g/ha combination; for Rating Scale: % Rating Type: Mean (Plant Part Rated: FL-0-1): disease rating, untreated control 2.8
[2] = tested on: Septoria tritici (SEPTTR); assay: Septoria tritici test (wheat), field trial FRA-AJ28; type: in vivo; conditions: sprayed twice, 47 DAB, BBCH 77, 75 g/ha (I), 75 g/ha (II), 150 g/ha (III), 75 + 75 + 150 g/ha combination; for Rating Scale: % Rating Type: Mean (Plant Part Rated: LEAF): disease rating, untreated control 95.0
[3] = tested on: Leptosphaeria nodorum (LEPTNO); assay: Leptosphaeria nodorum test (wheat), field trial DEU-S826; type: in vivo; conditions: sprayed twice, 18 DAB, BBCH 69, 75 g/ha (I), 75 g/ha (II), 150 g/ha (III), 75 + 75 + 150 g/ha combination; for Rating Scale: % Rating Type: Mean (Plant Part Rated: LEALOW): disease rating, untreated control 23.1
[4] = tested on: Septoria tritici (Mycosphaerella graminicola); assay: Protective and curative potential against Septoria tritici in winter wheat, visual assessment of infested leaf area; type: in vivo; conditions: assessed 21 days after inoculation, dose rates Table 5: BIX 0.6, BIX+FLU 0.75, BIX+PTZ 1, BIX+FLU+PTZ 1 l/ha
[5] = tested on: Septoria tritici (Mycosphaerella graminicola); assay: Protective and curative potential against Septoria tritici in winter wheat, quantification of Septoria-DNA (SeptoCast); type: in vivo; conditions: 21 days after inoculation, dose rates Table 5
[6] = tested on: Drechslera tritici-repentis (DTR, also named Pyrenophora tritici-repentis); assay: Curative potential against Drechslera tritici-repentis (tan spot) in winter wheat; type: in vivo; conditions: infected leaf area 21 days after inoculation; for Efficacy [% Abbott] 1 dai: application 1 day after inoculation; for Efficacy [% Abbott] 4 dai: application 4 days after inoculation
[7] = tested on: Alternaria alternata SDH-mutants; conditions: in vitro; Avenot et al., Crop Protection 29 (2010) 643-651; cited from earlier work
[8] = curative, application 1 day after inoculation
[9] = curative, application 4 days after inoculation
[10] = curative, application 8 days after inoculation
[11] = curative, application 11 days after inoculation
[12] = preventive, application 1 day before inoculation
[13] = preventive, application 4 days before inoculation
[14] = preventive, application 8 days before inoculation
[15] = preventive, application 11 days before inoculation
[16] = solo compound at 97.5 g a.i./ha

OC(Cc1ccccc1Cl)(Cn1nc[nH]c1=S)C1(Cl)CC1 (stereo not shown) [(III) Prothioconazole, prothioconazole]
Rating Scale: % Rating Type: Mean (Plant Part Rated: FL-0-1) [1]: 1.8%
% ABBOTT [1]: 36.4%
Efficacy [%] % found [1]: 36.4%
Rating Scale: % Rating Type: Mean (Plant Part Rated: LEAF) [2]: 30.0%
% ABBOTT [2]: 68.4%
Efficacy [%] % found [2]: 68.4%
Rating Scale: % Rating Type: Mean (Plant Part Rated: LEALOW) [3]: 6.4%
% ABBOTT [3]: 72.4%
Efficacy [%] % found [3]: 72.4%

Cn1cc(C(=O)Nc2ccc(F)cc2-c2ccc(Cl)c(Cl)c2)c(C(F)F)n1 [Bixafen, bixafen]
Rating Scale: % Rating Type: Mean (Plant Part Rated: FL-0-1) [1]: 2.3%
% ABBOTT [1]: 18.2%
Efficacy [%] % found [1]: 18.2%
Rating Scale: % Rating Type: Mean (Plant Part Rated: LEAF) [2]: 36.3%
% ABBOTT [2]: 61.8%
Efficacy [%] % found [2]: 61.8%
Visual assessment [%] ABBOTT, 1 dai [4, 8]: 100%
Visual assessment [%] ABBOTT, 4 dai [4, 9]: 100%
Visual assessment [%] ABBOTT, 8 dai [4, 10]: 81.1%
Visual assessment [%] ABBOTT, 11 dai [4, 11]: 80.2%
Visual assessment [%] ABBOTT, 1 dbi [4, 12]: 100%
Visual assessment [%] ABBOTT, 4 dbi [4, 13]: 100%
Visual assessment [%] ABBOTT, 8 dbi [4, 14]: 96.7%
Visual assessment [%] ABBOTT, 11 dbi [4, 15]: 88.7%
DNA Quantification [Septoria DNA], relative copynumbers, 1 dai [5, 8]: 135 n
DNA Quantification [Septoria DNA], relative copynumbers, 4 dai [5, 9]: 416 n
DNA Quantification [Septoria DNA], relative copynumbers, 8 dai [5, 10]: 10421 n
DNA Quantification [Septoria DNA], relative copynumbers, 11 dai [5, 11]: 19806 n
DNA Quantification [Septoria DNA], relative copy numbers, 1 dbi [5, 12]: 120 n
DNA Quantification [Septoria DNA], relative copy numbers, 4 dbi [5, 13]: 141 n
DNA Quantification [Septoria DNA], relative copy numbers, 8 dbi [5, 14]: 428 n
DNA Quantification [Septoria DNA], relative copy numbers, 11 dbi [5, 15]: 2853 n
Efficacy [% Abbott] 1 dai [6, 16]: 91 % Abbott
Efficacy [% Abbott] 4 dai [6, 16]: 38 % Abbott
Efficacy [% Abbott] 1 dai ([6]; solo compound at 125 g a.i./ha): 91 % Abbott
Efficacy [% Abbott] 4 dai ([6]; solo compound at 125 g a.i./ha): 32 % Abbott
Rating Scale: % Rating Type: Mean (Plant Part Rated: LEALOW) [3]: 14.7%
% ABBOTT [3]: 36.5%
Efficacy [%] % found [3]: 36.5%

O=C(NCCc1ncc(C(F)(F)F)cc1Cl)c1ccccc1C(F)(F)F [Fluopyram, N-{2-[3-chloro-5-(trifluoromethyl)-2-pyridyl]ethyl}-α,α,α-trifluoro-ortho-toluamide]
effect on mycelial growth of boscalid-resistant isolates carrying SDH-mutations [7]: strongly inhibited the mycelial growth
Rating Scale: % Rating Type: Mean (Plant Part Rated: FL-0-1) [1]: 2.3%
% ABBOTT [1]: 18.2%
Efficacy [%] % found [1]: 18.2%
Rating Scale: % Rating Type: Mean (Plant Part Rated: LEAF) [2]: 52.5%
% ABBOTT [2]: 44.7%
Efficacy [%] % found [2]: 44.7%
Efficacy [% Abbott] 1 dai [6, 16]: 97 % Abbott
Efficacy [% Abbott] 4 dai [6, 16]: 49 % Abbott
Rating Scale: % Rating Type: Mean (Plant Part Rated: LEALOW) [3]: 10.9%
% ABBOTT [3]: 53.0%
Efficacy [%] % found [3]: 53.0%

Cn1cc(C(=O)Nc2ccccc2-c2cc(F)c(F)c(F)c2)c(C(F)F)n1 [Fluxapyroxad, fluxapyroxad]
Efficacy [% Abbott] 1 dai [6, 16]: 93 % Abbott
Efficacy [% Abbott] 4 dai [6, 16]: 24 % Abbott
Efficacy [% Abbott] 1 dai ([6]; solo compound at 125 g a.i./ha): 94 % Abbott
Efficacy [% Abbott] 4 dai ([6]; solo compound at 125 g a.i./ha): 32 % Abbott

CC(C)CC(C)c1sccc1NC(=O)c1cn(C)nc1C(F)(F)F (stereo not shown) [penthiopyrad]
effect on mycelial growth of boscalid-resistant isolates carrying SDH-mutations [7]: not affected
